{"source": "paper PMC9656702", "about": "“Unveiling a New Selenocyanate as a Multitarget Candidate with Anticancer, Antileishmanial and Antibacterial Potential” (Molecules, 2022)", "key": {"E. coli": {"tested_on": "E. coli", "assay": "Growth curve study, E. coli", "type": "cell-based, Escherichia coli", "details": "for Bacterial growth of E. coli at 2MIC: highest concentration tested (2MIC), up to 48 h; for Lag phase (delay in bacterial growth), E. coli: lowest concentration evaluated (MIC/2)", "method": "(§1) To further examine the inhibitory effect of the moderately active compounds 1a and 2a on the growth of the six bacterial strains tested, growth kinetic studies were performed. Thus, the six bacterial strains were exposed to three different concentrations of the test compounds using the MIC values (Table 4) as reference (2MIC, MIC, and MIC/2), while untreated cells were used as negative control. The bacterial growth was recorded by measuring the absorbance at several time points.\n(§2) A stock solution of selected compounds 1a and 2a was prepared in DMSO, and different concentrations equivalent to 2MIC, MIC, and MIC/2 in TSB of each compound were dispensed into a 96-well plate with a final volume of 100 µL, while only TSB was added for the control wells. Then, 100 µL of a diluted suspension of bacterial cells in TSB with an optical density of 0.125 measured at 600 nm (inoculum of approximately 10^5 CFU/mL) was added to each well, and the incubation was monitored by spectrophotometric measurements. The absorbance was recorded at 600 nm against time (h) at predetermined periods on a microplate reader. The experiments were performed in triplicate."}, "K. pneumoniae": {"tested_on": "K. pneumoniae", "assay": "Growth curve study, K. pneumoniae", "type": "cell-based, Klebsiella pneumoniae", "details": "for Bacterial growth of K. pneumoniae at 2MIC: highest concentration tested (2MIC), up to 48 h", "method": "as §1, §2"}, "C. freundii": {"tested_on": "C. freundii", "assay": "Growth curve study, C. freundii", "type": "cell-based, Citrobacter freundii", "details": "for Bacterial growth of C. freundii at 2MIC: highest concentration tested (2MIC), up to 48 h", "method": "as §1, §2"}, "S. aureus": {"tested_on": "S. aureus", "assay": "Growth curve study, S. aureus", "type": "cell-based, Staphylococcus aureus", "details": "for Bacterial growth of S. aureus at 2MIC: highest concentration tested (2MIC), up to 48 h", "method": "as §1, §2"}, "S. faecalis": {"tested_on": "S. faecalis", "assay": "Growth curve study, S. faecalis", "type": "cell-based, Streptococcus faecalis", "details": "for Bacterial growth of S. faecalis at 2MIC: highest concentration tested (2MIC), up to 48 h", "method": "as §1, §2"}, "S. epidermidis": {"tested_on": "S. epidermidis", "assay": "Growth curve study, S. epidermidis", "type": "cell-based, Staphylococcus epidermidis", "details": "for Bacterial growth of S. epidermidis at sub-MIC concentration: 6.25 µg/mL; for Bacterial growth of S. epidermidis at 2MIC: highest concentration tested (2MIC), up to 48 h", "method": "as §1, §2"}, "[1]": {"assay": "DPPH radical scavenging assay", "details": "0.06 mg/mL, after two hours", "method": "Oxidative stress has been associated with a wide range of pathologies. […] Measurements were performed at 2 concentrations and recorded at eight different time points. Ascorbic acid (Asc) and Trolox were used as positive controls. The results are presented as the percentage of DPPH radical scavenging activity and are outlined in Figure 2.\nThe antioxidant activity of the selenocompounds was determined by the DPPH assay following a procedure previously published by our group. Briefly, the compounds were dissolved in absolute methanol at a concentration of 1 mg/mL, and a dilution was prepared. Asc and Trolox were used as positive controls. A methanolic solution (100 µM) of DPPH˙ was made daily and […]. The stability of the radical through the time of analysis was checked by absorbance measurements of this solution. A volume of 100 µL of DPPH in methanol was added to 100 µL of the compounds’ solutions to a final concentration of 0.03 or 0.06 mg/mL, and the decolorization of the purple radical to the yellowish reduced form was followed by recording the absorbance at 517 nm. Determinations were recorded at eight different time intervals from 0 to 120 min on a BioTeck PowerWave XS spectrophotometer and the data were collected using KCJunior software. All the measurements were carried out in triplicate. […]"}, "[2]": {"details": "lowest concentration tested, 12.5 µg/mL"}}, "data": [{"smiles": "N#C[Se]C/C=C/c1ccccc1", "note": "[Compound 1a, (E)-(3-selenocyanatoprop-1-en-1-yl)benzene]", "values": [{"measurement": "Bacterial growth of E. coli at 2MIC", "setting": "E. coli", "value": "no bacterial growth was detected"}, {"measurement": "Lag phase (delay in bacterial growth), E. coli", "setting": "E. coli", "value": 41, "unit": "h"}, {"measurement": "Bacterial growth of K. pneumoniae at the concentrations tested", "setting": "K. pneumoniae; 2MIC, MIC and MIC/2", "value": "no growth was detected"}, {"measurement": "Bacterial growth of K. pneumoniae at 2MIC", "setting": "K. pneumoniae", "value": "no bacterial growth was detected"}, {"measurement": "Bacterial growth of C. freundii at 2MIC", "setting": "C. freundii", "value": "no bacterial growth was detected"}, {"measurement": "Bacterial growth of S. aureus at 2MIC", "setting": "S. aureus", "value": "no bacterial growth was detected"}, {"measurement": "Bacterial growth of S. faecalis at 2MIC", "setting": "S. faecalis", "value": "no bacterial growth was detected"}, {"measurement": "Bacterial growth of S. epidermidis at sub-MIC concentration", "setting": "S. epidermidis", "value": "a delay could be observed"}, {"measurement": "Bacterial growth of S. epidermidis at 2MIC", "setting": "S. epidermidis", "value": "no bacterial growth was detected"}, {"measurement": "melting point", "value": "87 to 89", "unit": "°C"}]}, {"smiles": "O=C(CC[Se]CC=Cc1ccccc1)[c-]1cccc1.[Fe+2].c1cc[cH-]c1", "note": "[Compound 1c, 3-(Cinnamylselanyl)-1-ferrocenylpropan-1-one]", "values": [{"measurement": "DPPH radical scavenging activity", "setting": "[1]", "value": 72.6, "unit": "%"}]}, {"smiles": "N#C[Se]Cc1ccc2c(c1)OCO2", "note": "[Compound 2a, 5-(Selenocyanatomethyl)benzo[d][1,3]dioxole]", "values": [{"measurement": "Bacterial growth of E. coli at 2MIC", "setting": "E. coli", "value": "no bacterial growth was detected"}, {"measurement": "Lag phase (delay in bacterial growth), E. coli", "setting": "E. coli", "value": 10, "unit": "h"}, {"measurement": "Log phase before bacterial growth, K. pneumoniae", "setting": "K. pneumoniae; 25 µg/mL", "value": 28, "unit": "h"}, {"measurement": "Log phase before bacterial growth, K. pneumoniae", "setting": "K. pneumoniae; 50 µg/mL", "value": 42, "unit": "h"}, {"measurement": "Bacterial growth of K. pneumoniae at 2MIC", "setting": "K. pneumoniae", "value": "no bacterial growth was detected"}, {"measurement": "Bacterial growth of C. freundii at 2MIC", "setting": "C. freundii", "value": "no bacterial growth was detected"}, {"measurement": "Log phase, C. freundii", "setting": "C. freundii; lowest concentration (50 µg/mL)", "value": 43, "unit": "h"}, {"measurement": "Delay in the bacterial growth, S. aureus", "setting": "S. aureus; MIC concentration (25 µg/mL)", "value": 44, "unit": "h"}, {"measurement": "Bacterial growth of S. aureus at 2MIC", "setting": "S. aureus", "value": "no bacterial growth was detected"}, {"measurement": "Bacterial growth of S. aureus at MIC/2", "setting": "S. aureus; [2]", "value": "exponential growth of bacteria was observed"}, {"measurement": "Bacterial growth of S. faecalis at 2MIC", "setting": "S. faecalis", "value": "no bacterial growth was detected"}, {"measurement": "Bacterial growth of S. faecalis at MIC/2", "setting": "S. faecalis; [2]", "value": "exponential growth of bacteria was observed"}, {"measurement": "Bacterial growth of S. epidermidis at sub-MIC concentration", "setting": "S. epidermidis", "value": "a delay could be observed"}, {"measurement": "Bacterial growth of S. epidermidis at 2MIC", "setting": "S. epidermidis", "value": "no bacterial growth was detected"}, {"measurement": "melting point", "value": "71 to 73", "unit": "°C"}]}, {"smiles": "O=C(CC[Se]Cc1ccc2c(c1)OCO2)[c-]1cccc1.[Fe+2].c1cc[cH-]c1", "note": "[Compound 2c, 3-((Benzo[d][1,3]dioxol-5-ylmethyl)selanyl)-1-ferrocenylpropan-1-one]", "values": [{"measurement": "DPPH radical scavenging activity", "setting": "[1]", "value": 76.1, "unit": "%"}]}]}
